We go through three substances from US20110110979A1, “METHOD AND VACCINE FOR […] SPECIFIC IMMUNE RESPONSES” (Universite De Lausanne, priority 2008, published 2011).

The target in assay [1] is HPV16 E749-57 peptide presented by H-2D^b (human papillomavirus type 16; mouse (C57BL/6)) (UniProt P01899).
Assay [2] has the same target. The source holds these as a separate data set.
Assay [3] concerns E749-57-specific CD8 T cells. The assay can be described thus: ex vivo IFN-γ ELISPOT after sc or i.n. immunization with E71-98 + adjuvants. As to conditions: single 50 μg sc or i.n. dose, no adjuvant; 7 days after immunization. Format: in vivo, C57BL/6 mice.
For assay [4], the system named is E749-57-specific CD8 T cells. The assay can be described thus: ex vivo IFN-γ ELISPOT after E7 vaccination followed by ivag immunostimulant. As to conditions: sc E71-98+CpG and HLT day 1; ivag immunostimulant day 6; analysis day 9. Format: in vivo, C57BL/6 mice.
In another assay the test system is E7-specific CD8 cells. As to conditions: single dose HSp E7+poly IC followed by three consecutive daily doses of Poly IC alone; cited from earlier work.

For “E7-specific CD8 T cells from C57BL/6 mice vaccinated with E71-98 + adjuvants (PBMC, spleen, lymph no (cells without a defined receptor)”, the ex vivo IFN-γ ELISPOT (E7-specific IFN-γ secreting cells/10^5 cells) in assay [1] was 347. Also, the in vivo cytotoxicity assay (specific lysis of CFSE-labeled peptide-pulsed splenocytes) in assay [2] came out at 80%. With “E71-98: complete synthetic E7 polypeptide (residues 1-98) of human papillomavirus type 16”, the “E7-specific CD8 T cell responses in PBMC” value in assay [3] is listed as “did not induce detectable E7-specific CD8 T cell responses”. For the substance “polyriboinosinic:polyribocytidylic acid [pI:C]”, the “E7-specific CD8 T cell responses in CV tissue vs ivag PBS” value in assay [4] was “strongly enhanced”. Further, the “numbers of E7-specific CD8 cells vs single dose of HspE7+poly IC” value with E7-specific CD8 cells was “did not elicit a significant increase”.
